PMC8333425, “Discovery of a dual Ras and ARF6 inhibitor from a GPCR endocytosis screen” (Nature Communications, 2021)

What was measured:
Assay in all cases: KINOMEscan kinase binding assay
[1] = biological target: T1, 384 kinases from the human genome (Homo sapiens, UniProt Q52WX2); settings: kinase SBK1 (Entrez SBK1)
T1 construct: purchased Eurofin/DiscoverX
How it was run: (§1)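 Competition binding (KINOMEscan) across 384 human kinases with compound at 10 µM. Ligand binding was expressed relative to DMSO (100%) as the average of duplicates from one experiment. S(10) selectivity score was derived.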

[2] = biological target: T2, 384 kinases from the human genome (Homo sapiens, UniProt P08922); settings: kinase ROS1 (Entrez ROS1)
T2 construct: purchased Eurofin/DiscoverX
How it was run: as §1

[3] = biological target: T3, 384 kinases from the human genome (Homo sapiens, UniProt P12931)
T3 construct: purchased Eurofin/DiscoverX
How it was run: as §1

[4] = biological target: T4, 384 kinases from the human genome (Homo sapiens, UniProt Q13043); settings: kinase MST1 (Entrez STK4)
T4 construct: purchased Eurofin/DiscoverX
How it was run: as §1

[5] = biological target: T5, 384 kinases from the human genome (Homo sapiens, UniProt Q9NY57); settings: kinase YANK2 (Entrez STK32B)
T5 construct: purchased Eurofin/DiscoverX
How it was run: as §1

[6] = biological target: T6, 384 kinases from the human genome (Homo sapiens, UniProt O75116); settings: kinase ROCK2 (Entrez ROCK2)
T6 construct: purchased Eurofin/DiscoverX
How it was run: as §1

[7] = biological target: T7, 384 kinases from the human genome (Homo sapiens, UniProt P32298); settings: kinase GRK4 (Entrez GRK4)
T7 construct: purchased Eurofin/DiscoverX
How it was run: as §1

[8] = biological target: T8, 384 kinases from the human genome (Homo sapiens, UniProt Q9BRS2); settings: kinase RIOK1 (Entrez RIOK1)
T8 construct: purchased Eurofin/DiscoverX
How it was run: as §1

[9] = biological target: T9, 384 kinases from the human genome (Homo sapiens, UniProt Q9UQ88); settings: kinase CDC2L2 (Entrez CDC2L2)
T9 construct: purchased Eurofin/DiscoverX
How it was run: as §1

[10] = biological target: T10, 384 kinases from the human genome (Homo sapiens, UniProt Q9Y2U5); settings: kinase MAP3K2 (Entrez MAP3K2)
T10 construct: purchased Eurofin/DiscoverX
How it was run: as §1

[11] = biological target: T11, 384 kinases from the human genome (Homo sapiens, UniProt O95835); settings: kinase LATS1 (Entrez LATS1)
T11 construct: purchased Eurofin/DiscoverX
How it was run: as §1

[12] = biological target: T12, 384 kinases from the human genome (Homo sapiens, UniProt P30530); settings: kinase AXL (Entrez AXL)
T12 construct: purchased Eurofin/DiscoverX
How it was run: as §1

[13] = biological target: T13, 384 kinases from the human genome (Homo sapiens, UniProt P41743); settings: kinase PRKCI (Entrez PRKCI)
T13 construct: purchased Eurofin/DiscoverX
How it was run: as §1

[14] = biological target: T14, 384 kinases from the human genome (Homo sapiens, UniProt Q9NQU5); settings: kinase PAK6 (Entrez PAK6)
T14 construct: purchased Eurofin/DiscoverX
How it was run: as §1

[15] = biological target: T15, 384 kinases from the human genome (Homo sapiens, UniProt Q92772); settings: kinase CDKL2 (Entrez CDKL2)
T15 construct: purchased Eurofin/DiscoverX
How it was run: as §1

[16] = biological target: T16, 384 kinases from the human genome (Homo sapiens, UniProt P15735); settings: kinase PHKG2 (Entrez PHKG2)
T16 construct: purchased Eurofin/DiscoverX
How it was run: as §1

[17] = biological target: T17, 384 kinases from the human genome (Homo sapiens, UniProt P54760); settings: kinase EPHB4 (Entrez EPHB4)
T17 construct: purchased Eurofin/DiscoverX
How it was run: as §1

[18] = biological target: T18, 384 kinases from the human genome (Homo sapiens, UniProt P29323); settings: kinase EPHB2 (Entrez EPHB2)
T18 construct: purchased Eurofin/DiscoverX
How it was run: as §1

[19] = biological target: T19, 384 kinases from the human genome (Homo sapiens, UniProt P07332); settings: kinase FES (Entrez FES)
T19 construct: purchased Eurofin/DiscoverX
How it was run: as §1

[20] = biological target: T20, 384 kinases from the human genome (Homo sapiens, UniProt P78356); settings: kinase PIP5K2B (Entrez PIP4K2B)
T20 construct: purchased Eurofin/DiscoverX
How it was run: as §1

[21] = biological target: T21, 384 kinases from the human genome (Homo sapiens, UniProt Q99640); settings: kinase PKMYT1 (Entrez PKMYT1)
T21 construct: purchased Eurofin/DiscoverX
How it was run: as §1

[22] = biological target: T22, 384 kinases from the human genome (Homo sapiens, UniProt O75716); settings: kinase STK16 (Entrez STK16)
T22 construct: purchased Eurofin/DiscoverX
How it was run: as §1

[23] = biological target: T23, 384 kinases from the human genome (Homo sapiens, UniProt Q16620); settings: kinase TRKB (Entrez NTRK2)
T23 construct: purchased Eurofin/DiscoverX
How it was run: as §1

[24] = biological target: T24, 384 kinases from the human genome (Homo sapiens, UniProt Q9H1R3); settings: kinase MYLK2 (Entrez MYLK2)
T24 construct: purchased Eurofin/DiscoverX
How it was run: as §1

[25] = biological target: T25, 384 kinases from the human genome (Homo sapiens, UniProt Q86Y07); settings: kinase VRK2 (Entrez VRK2)
T25 construct: purchased Eurofin/DiscoverX
How it was run: as §1

[26] = biological target: T26, 384 kinases from the human genome (Homo sapiens, UniProt P08581); settings: kinase MET (Entrez MET)
T26 construct: purchased Eurofin/DiscoverX
How it was run: as §1

T3 sequence (P12931 whole entry): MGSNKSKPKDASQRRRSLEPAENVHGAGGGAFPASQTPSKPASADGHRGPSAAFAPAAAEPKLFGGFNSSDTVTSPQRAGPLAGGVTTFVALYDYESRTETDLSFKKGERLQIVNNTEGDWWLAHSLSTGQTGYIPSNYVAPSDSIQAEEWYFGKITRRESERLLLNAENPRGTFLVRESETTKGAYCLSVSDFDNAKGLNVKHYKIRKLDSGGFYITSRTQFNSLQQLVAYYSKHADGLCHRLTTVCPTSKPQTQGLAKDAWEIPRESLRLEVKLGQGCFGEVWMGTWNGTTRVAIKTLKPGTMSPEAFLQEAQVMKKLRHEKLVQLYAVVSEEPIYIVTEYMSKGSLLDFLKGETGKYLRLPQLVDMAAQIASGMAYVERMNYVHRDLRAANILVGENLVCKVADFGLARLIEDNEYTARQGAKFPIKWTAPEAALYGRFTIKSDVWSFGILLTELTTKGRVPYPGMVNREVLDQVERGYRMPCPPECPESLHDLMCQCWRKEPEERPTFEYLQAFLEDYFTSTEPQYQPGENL
T2 sequence (P08922 28-2347): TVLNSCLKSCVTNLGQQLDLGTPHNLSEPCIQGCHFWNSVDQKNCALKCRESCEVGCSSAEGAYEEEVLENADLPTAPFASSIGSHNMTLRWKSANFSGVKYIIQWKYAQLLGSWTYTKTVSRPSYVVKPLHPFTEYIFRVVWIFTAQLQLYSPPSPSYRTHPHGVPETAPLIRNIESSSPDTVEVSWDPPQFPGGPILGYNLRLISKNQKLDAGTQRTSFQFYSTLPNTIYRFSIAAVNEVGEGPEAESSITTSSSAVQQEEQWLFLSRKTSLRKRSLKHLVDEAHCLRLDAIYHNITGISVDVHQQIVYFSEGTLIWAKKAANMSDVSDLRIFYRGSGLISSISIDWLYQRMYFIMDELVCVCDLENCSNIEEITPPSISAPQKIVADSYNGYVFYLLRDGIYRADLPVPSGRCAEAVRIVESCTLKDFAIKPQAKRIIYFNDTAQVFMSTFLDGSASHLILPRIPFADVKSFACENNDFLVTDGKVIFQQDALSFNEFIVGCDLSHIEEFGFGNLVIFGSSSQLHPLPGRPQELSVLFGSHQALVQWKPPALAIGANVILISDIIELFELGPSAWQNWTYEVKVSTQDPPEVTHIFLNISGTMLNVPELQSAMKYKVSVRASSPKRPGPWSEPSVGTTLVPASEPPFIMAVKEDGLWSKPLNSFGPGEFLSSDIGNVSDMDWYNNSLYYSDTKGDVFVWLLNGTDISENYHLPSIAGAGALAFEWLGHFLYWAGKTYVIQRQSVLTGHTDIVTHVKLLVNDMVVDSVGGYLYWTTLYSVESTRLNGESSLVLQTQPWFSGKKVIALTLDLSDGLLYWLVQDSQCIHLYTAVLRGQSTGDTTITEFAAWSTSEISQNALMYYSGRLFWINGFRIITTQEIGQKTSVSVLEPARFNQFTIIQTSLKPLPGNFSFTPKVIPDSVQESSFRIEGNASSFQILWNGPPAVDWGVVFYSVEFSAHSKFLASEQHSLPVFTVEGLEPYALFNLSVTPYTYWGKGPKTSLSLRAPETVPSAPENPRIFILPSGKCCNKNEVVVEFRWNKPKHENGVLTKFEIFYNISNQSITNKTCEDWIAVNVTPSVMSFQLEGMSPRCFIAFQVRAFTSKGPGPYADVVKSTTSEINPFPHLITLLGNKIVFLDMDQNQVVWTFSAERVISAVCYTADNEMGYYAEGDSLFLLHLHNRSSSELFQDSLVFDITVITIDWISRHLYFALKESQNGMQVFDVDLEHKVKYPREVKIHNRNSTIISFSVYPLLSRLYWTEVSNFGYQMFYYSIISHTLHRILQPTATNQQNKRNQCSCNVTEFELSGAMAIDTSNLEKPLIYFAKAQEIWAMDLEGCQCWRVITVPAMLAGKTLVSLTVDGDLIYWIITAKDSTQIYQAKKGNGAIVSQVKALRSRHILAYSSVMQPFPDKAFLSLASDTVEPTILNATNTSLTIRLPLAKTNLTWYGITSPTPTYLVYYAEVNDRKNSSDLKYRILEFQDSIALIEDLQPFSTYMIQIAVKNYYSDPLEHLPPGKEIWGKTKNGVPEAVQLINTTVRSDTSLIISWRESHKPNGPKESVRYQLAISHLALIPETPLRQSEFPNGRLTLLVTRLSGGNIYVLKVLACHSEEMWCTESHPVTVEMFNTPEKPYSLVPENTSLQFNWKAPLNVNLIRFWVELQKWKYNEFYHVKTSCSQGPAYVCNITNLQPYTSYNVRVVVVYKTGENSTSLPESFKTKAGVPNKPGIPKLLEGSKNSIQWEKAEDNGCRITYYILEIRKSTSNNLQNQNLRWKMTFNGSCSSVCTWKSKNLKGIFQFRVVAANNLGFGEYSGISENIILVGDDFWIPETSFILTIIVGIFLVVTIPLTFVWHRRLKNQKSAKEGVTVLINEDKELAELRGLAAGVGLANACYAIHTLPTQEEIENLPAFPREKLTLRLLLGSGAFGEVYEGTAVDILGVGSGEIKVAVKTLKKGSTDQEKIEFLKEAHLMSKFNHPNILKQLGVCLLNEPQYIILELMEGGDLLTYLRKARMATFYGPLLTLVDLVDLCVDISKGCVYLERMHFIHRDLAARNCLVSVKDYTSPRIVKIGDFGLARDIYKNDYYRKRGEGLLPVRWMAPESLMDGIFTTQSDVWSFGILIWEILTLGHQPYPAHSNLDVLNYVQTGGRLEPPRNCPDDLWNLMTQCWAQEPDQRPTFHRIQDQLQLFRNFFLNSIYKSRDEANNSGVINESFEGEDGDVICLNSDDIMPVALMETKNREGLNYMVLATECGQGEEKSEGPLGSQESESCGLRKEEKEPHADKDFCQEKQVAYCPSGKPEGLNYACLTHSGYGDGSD
T6 sequence (O75116 whole entry): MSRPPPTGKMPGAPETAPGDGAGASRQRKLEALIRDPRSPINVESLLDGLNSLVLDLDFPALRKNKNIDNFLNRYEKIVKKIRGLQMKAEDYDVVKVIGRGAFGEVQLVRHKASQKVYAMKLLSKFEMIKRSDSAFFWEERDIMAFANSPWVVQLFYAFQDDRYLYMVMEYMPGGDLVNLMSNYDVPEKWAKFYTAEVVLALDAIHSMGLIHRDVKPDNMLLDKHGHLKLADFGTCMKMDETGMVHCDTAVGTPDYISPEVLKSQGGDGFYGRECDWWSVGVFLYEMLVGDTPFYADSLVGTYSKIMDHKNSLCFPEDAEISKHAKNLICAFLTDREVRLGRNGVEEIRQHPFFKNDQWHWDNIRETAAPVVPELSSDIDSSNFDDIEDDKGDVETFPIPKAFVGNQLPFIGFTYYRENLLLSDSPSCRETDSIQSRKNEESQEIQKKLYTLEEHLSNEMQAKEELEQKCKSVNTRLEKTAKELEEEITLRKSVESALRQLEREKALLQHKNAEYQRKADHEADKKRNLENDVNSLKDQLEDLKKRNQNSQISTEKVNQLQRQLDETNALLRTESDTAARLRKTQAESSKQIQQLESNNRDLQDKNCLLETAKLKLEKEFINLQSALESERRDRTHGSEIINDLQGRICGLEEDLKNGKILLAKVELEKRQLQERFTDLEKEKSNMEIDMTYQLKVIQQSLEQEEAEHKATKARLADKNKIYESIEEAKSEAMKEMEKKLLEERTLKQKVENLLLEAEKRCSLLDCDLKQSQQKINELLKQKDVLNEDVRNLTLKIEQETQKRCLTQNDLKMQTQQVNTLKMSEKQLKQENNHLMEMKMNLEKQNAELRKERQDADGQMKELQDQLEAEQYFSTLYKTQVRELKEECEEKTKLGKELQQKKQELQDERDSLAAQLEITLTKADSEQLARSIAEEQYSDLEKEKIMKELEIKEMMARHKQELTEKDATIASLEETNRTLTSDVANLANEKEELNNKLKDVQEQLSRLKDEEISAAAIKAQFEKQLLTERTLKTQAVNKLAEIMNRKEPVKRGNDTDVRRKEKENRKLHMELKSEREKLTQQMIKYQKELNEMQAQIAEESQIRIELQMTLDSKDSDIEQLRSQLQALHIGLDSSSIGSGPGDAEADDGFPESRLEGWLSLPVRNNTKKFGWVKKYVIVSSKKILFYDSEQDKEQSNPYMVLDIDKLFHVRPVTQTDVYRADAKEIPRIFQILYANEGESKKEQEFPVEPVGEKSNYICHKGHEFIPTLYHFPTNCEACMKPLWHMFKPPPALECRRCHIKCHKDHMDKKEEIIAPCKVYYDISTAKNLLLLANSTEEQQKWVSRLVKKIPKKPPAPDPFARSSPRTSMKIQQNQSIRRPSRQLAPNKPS
T22 sequence (O75716 whole entry): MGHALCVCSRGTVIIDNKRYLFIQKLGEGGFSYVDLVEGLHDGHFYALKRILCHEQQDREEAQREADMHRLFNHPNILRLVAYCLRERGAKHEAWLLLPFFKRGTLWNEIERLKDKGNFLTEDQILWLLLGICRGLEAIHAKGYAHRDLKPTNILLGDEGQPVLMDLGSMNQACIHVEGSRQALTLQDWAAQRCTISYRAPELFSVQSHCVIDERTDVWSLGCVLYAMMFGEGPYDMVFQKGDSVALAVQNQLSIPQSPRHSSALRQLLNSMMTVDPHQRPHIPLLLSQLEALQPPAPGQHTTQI
T16 sequence (P15735 whole entry): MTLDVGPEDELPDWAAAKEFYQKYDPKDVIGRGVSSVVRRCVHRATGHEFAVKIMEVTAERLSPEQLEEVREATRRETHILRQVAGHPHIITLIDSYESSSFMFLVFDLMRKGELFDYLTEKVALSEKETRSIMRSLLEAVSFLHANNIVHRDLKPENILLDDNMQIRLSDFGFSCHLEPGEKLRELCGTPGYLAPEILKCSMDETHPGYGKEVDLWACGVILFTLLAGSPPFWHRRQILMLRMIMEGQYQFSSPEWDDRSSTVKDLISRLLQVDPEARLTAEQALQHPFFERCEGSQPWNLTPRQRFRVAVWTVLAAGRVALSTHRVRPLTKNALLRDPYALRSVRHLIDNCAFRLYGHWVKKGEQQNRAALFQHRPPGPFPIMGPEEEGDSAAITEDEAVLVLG

CC(C)C(=O)N1CCN(c2ccc(NC(=O)c3cc4ccccc4o3)cc2Cl)CC1 [Compound 21]
Percent Control [1]: 100%
Percent Control [2]: 94%
binding to Src ([3]; 10 µM of 21): failed to bind
Percent Control ([3]; kinase SRC (Entrez SRC)): 100%
Percent Control [4]: 97%
Percent Control [5]: 98%
Percent Control [6]: 80%
Percent Control [7]: 99%
Percent Control [8]: 100%
Percent Control [9]: 95%
Percent Control [10]: 99%
Percent Control [11]: 98%
Percent Control [12]: 69%
Percent Control [13]: 100%
Percent Control [14]: 81%
Percent Control [15]: 100%
Percent Control [16]: 100%
Percent Control [17]: 77%
Percent Control [18]: 94%
Percent Control [19]: 73%
Percent Control [20]: 83%
Percent Control [21]: 83%
Percent Control [22]: 100%
Percent Control [23]: 55%
Percent Control [24]: 80%
Percent Control [25]: 88%
Percent Control [26]: 91%
